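Method: 48-hour compound exposure of cells in 96-well plates, five concentrations, linear interpolation of endpoints. The concentration for 50% growth inhibition is given as GI50. TGI denotes the concentration required for complete inhibition of growth.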
Tests used:
Assay in all cases: DTP human tumour cell line panel, 48 h
[1] = tested on: 786-0 renal
[2] = tested on: A498 renal
[3] = tested on: A549 NSCLC
[4] = tested on: ACHN renal
[5] = tested on: BT-549 breast
[6] = tested on: CAKI-1 renal
[7] = tested on: CCRF-CEM leukemia
[8] = tested on: COLO 205 colon
[9] = tested on: DU-145 prostate
[10] = tested on: EKVX NSCLC
[11] = tested on: HCC-2998 colon
[12] = tested on: HCT-116 colon
[13] = tested on: HCT-15 colon
[14] = tested on: HL-60(TB) leukemia
[15] = tested on: HOP-62 NSCLC
[16] = tested on: HOP-92 NSCLC
[17] = tested on: HS 578T breast
[18] = tested on: HT29 colon
[19] = tested on: IGROV1 ovarian
[20] = tested on: K-562 leukemia
[21] = tested on: KM12 colon
[22] = tested on: LOX IMVI melanoma
[23] = tested on: M14 melanoma
[24] = tested on: MALME-3M melanoma
[25] = tested on: MCF7 breast
[26] = tested on: MDA-MB-231 breast
[27] = tested on: MDA-MB-435
[28] = tested on: MDA-MB-468 breast
[29] = tested on: MOLT-4 leukemia
[30] = tested on: NCI-H226 lung
[31] = tested on: NCI-H23 lung
[32] = tested on: NCI-H460 lung
[33] = tested on: NCI-H522 lung
[34] = tested on: NCI/ADR-RES ovarian
[35] = tested on: OVCAR-3 ovarian
[36] = tested on: OVCAR-4 ovarian
[37] = tested on: OVCAR-5 ovarian
[38] = tested on: OVCAR-8 ovarian
[39] = tested on: PC-3 prostate
[40] = tested on: RPMI-8226 leukemia
[41] = tested on: RXF 393 renal
[42] = tested on: SF-268 CNS
[43] = tested on: SF-295 CNS
[44] = tested on: SF-539 CNS
[45] = tested on: SK-MEL-2 melanoma
[46] = tested on: SK-MEL-28 melanoma
[47] = tested on: SK-MEL-5 melanoma
[48] = tested on: SK-OV-3 ovarian
[49] = tested on: SN12C renal
[50] = tested on: SNB-19 CNS
[51] = tested on: SNB-75 CNS
[52] = tested on: SR leukemia
[53] = tested on: SW-620 colon
[54] = tested on: T-47D breast
[55] = tested on: TK-10 renal
[56] = tested on: U251 CNS
[57] = tested on: UACC-257 melanoma
[58] = tested on: UACC-62 melanoma
[59] = tested on: UO-31 renal

CC(Nc1ncnc2ccc(-c3ccc4oc(N)nc4c3)cc12)c1ccccc1 (stereo unspecified) was tested, and the GI50 [1] was 2.19 µM, the TGI [1] was 8.59 µM and the GI50 [2] was 2.3 µM. The TGI [2] was 17.3 µM, the GI50 [3] was 2.75 µM and the TGI [3] was 18.2 µM. For the same molecule, the GI50 [4] was 1.84 µM, the TGI [4] was 4.92 µM and the GI50 [5] was 2.62 µM. It also gave a TGI [5] of 11.3 µM, a GI50 [6] of 3.52 µM and a TGI [6] of 17.1 µM. It also gave a GI50 [7] of 2.34 µM, a TGI [7] of 10.2 µM and a GI50 [8] of 5.3 µM. For the same molecule, the TGI [8] was > 100 µM, the GI50 [9] was 2.91 µM and the TGI [9] was 15.6 µM. The GI50 [10] was 2.73 µM, the TGI [10] was 18.5 µM and the GI50 [11] was 3.59 µM. It also gave a TGI [11] of 15.8 µM, a GI50 [12] of 2.06 µM and a TGI [12] of 4.78 µM. For the same molecule, the GI50 [13] was 2.85 µM, the TGI [13] was 11.7 µM and the GI50 [14] was 1.87 µM. The TGI [14] was 5 µM, the GI50 [15] was 1.63 µM and the TGI [15] was 4.68 µM. For the same molecule, the GI50 [16] was 2.02 µM, the TGI [16] was 5.62 µM and the GI50 [17] was 2.04 µM. The TGI [17] was 5.86 µM, the GI50 [18] was 4.94 µM and the TGI [18] was > 100 µM. For the same molecule, the GI50 [19] was 1.45 µM, the TGI [19] was 3.75 µM and the GI50 [20] was 3.89 µM. For the same molecule, the TGI [20] was 15.5 µM, the GI50 [21] was 4.27 µM and the TGI [21] was 29 µM. It also gave a GI50 [22] of 1.62 µM, a TGI [22] of 3 µM and a GI50 [23] of 4.97 µM. It also gave a TGI [23] of 42.4 µM, a GI50 [24] of 1.7 µM and a TGI [24] of 3.44 µM. It also gave a GI50 [25] of 1.59 µM, a TGI [25] of 3.57 µM and a GI50 [26] of 2.59 µM. It also gave a TGI [26] of 6.92 µM, a GI50 [27] of 3.84 µM and a TGI [27] of 19.5 µM. The GI50 [28] was 1.07 µM, the TGI [28] was 2.8 µM and the GI50 [29] was 2.67 µM. It also gave a TGI [29] of 10.4 µM, a GI50 [30] of 1.87 µM and a TGI [30] of 6.21 µM. It also gave a GI50 [31] of 3.53 µM, a TGI [31] of 14.5 µM and a GI50 [32] of 2.34 µM. For the same molecule, the TGI [32] was 5.91 µM, the GI50 [33] was 2.83 µM and the TGI [33] was 13.4 µM. For the same molecule, the GI50 [34] was 3.1 µM, the TGI [34] was 11.5 µM and the GI50 [35] was 1.67 µM. It also gave a TGI [35] of 3.35 µM, a GI50 [36] of 2.14 µM and a TGI [36] of 5.16 µM. The GI50 [37] was 3.49 µM, the TGI [37] was 18.7 µM and the GI50 [38] was 2.96 µM. It also gave a TGI [38] of 12.6 µM, a GI50 [39] of 4.52 µM and a TGI [39] of 17.1 µM. For the same molecule, the GI50 [40] was 2.47 µM, the TGI [40] was 13.3 µM and the GI50 [41] was 1.98 µM. The TGI [41] was 5.87 µM, the GI50 [42] was 3.91 µM and the TGI [42] was 54.7 µM. It also gave a GI50 [43] of 2.82 µM, a TGI [43] of 12.9 µM and a GI50 [44] of 1.91 µM. The TGI [44] was 4.78 µM, the GI50 [45] was 19.5 µM and the TGI [45] was 41.7 µM. The GI50 [46] was 3.54 µM, the TGI [46] was 15.1 µM and the GI50 [47] was 2.15 µM. The TGI [47] was 5.88 µM, the GI50 [48] was 2.65 µM and the TGI [48] was 8.56 µM. For the same molecule, the GI50 [49] was 2.4 µM, the TGI [49] was 7.26 µM and the GI50 [50] was 3.13 µM. It also gave a TGI [50] of 14.6 µM, a GI50 [51] of 1.45 µM and a TGI [51] of 3.61 µM. For the same molecule, the GI50 [52] was 2.9 µM, the TGI [52] was 10.3 µM and the GI50 [53] was 4.42 µM. For the same molecule, the TGI [53] was 18.9 µM, the GI50 [54] was 4.06 µM and the TGI [54] was 26 µM. It also gave a GI50 [55] of 1.57 µM, a TGI [55] of 5.51 µM and a GI50 [56] of 2.8 µM. The TGI [56] was 11.6 µM, the GI50 [57] was 5.23 µM and the TGI [57] was 39.5 µM. The GI50 [58] was 3.26 µM, the TGI [58] was 11.8 µM and the GI50 [59] was 1.37 µM. The TGI [59] was 4.16 µM.

For CC1(C)CC[C@]23CC[C@]4(C)[C@H](CC[C@@H]5[C@@]6(C)CC[C@H](N)C(C)(C)[C@@H]6CC[C@]54C)[C@H]2[C@H]1OC3=O, the GI50 [1] was 1.45 µM, the TGI [1] was 2.92 µM and the GI50 [2] was 1.48 µM. It also gave a TGI [2] of 3.44 µM, a GI50 [4] of 1.68 µM and a TGI [4] of 3.05 µM. The GI50 [5] was 1.52 µM, the TGI [5] was 2.92 µM and the GI50 [6] was 1.57 µM. It also gave a TGI [6] of 2.98 µM, a GI50 [9] of 1.81 µM and a TGI [9] of 3.31 µM. The GI50 [10] was 1.7 µM, the TGI [10] was 3.16 µM and the GI50 [11] was 1.61 µM. The TGI [11] was 3.02 µM, the GI50 [12] was 1.6 µM and the TGI [12] was 3.05 µM. The GI50 [13] was 1.64 µM, the TGI [13] was 3.07 µM and the GI50 [16] was 1.59 µM. It also gave a TGI [16] of 3.15 µM, a GI50 [17] of 1.89 µM and a TGI [17] of 4.09 µM. For the same molecule, the GI50 [19] was 1.68 µM, the TGI [19] was 3.1 µM and the GI50 [20] was 2.53 µM. The TGI [20] was > 100 µM, the GI50 [21] was 1.82 µM and the TGI [21] was 3.41 µM. The GI50 [22] was 1.68 µM, the TGI [22] was 3.05 µM and the GI50 [23] was 1.81 µM. For the same molecule, the TGI [23] was 3.34 µM, the GI50 [24] was 1.67 µM and the TGI [24] was 3.06 µM. The GI50 [25] was 1.57 µM, the TGI [25] was 3.22 µM and the GI50 [26] was 1.69 µM. The TGI [26] was 3.09 µM, the GI50 [27] was 1.6 µM and the TGI [27] was 3.11 µM. It also gave a GI50 [28] of 1.69 µM, a TGI [28] of 3.18 µM and a GI50 [29] of 1.85 µM. The TGI [29] was 4.38 µM, the GI50 [30] was 2.15 µM and the TGI [30] was 5.47 µM. It also gave a GI50 [31] of 1.74 µM, a TGI [31] of 3.22 µM and a GI50 [32] of 1.64 µM. The TGI [32] was 3.17 µM, the GI50 [34] was 1.8 µM and the TGI [34] was 3.61 µM. The GI50 [35] was 1.66 µM, the TGI [35] was 3.1 µM and the GI50 [36] was 1.94 µM. For the same molecule, the TGI [36] was 3.86 µM, the GI50 [37] was 1.65 µM and the TGI [37] was 3.02 µM. For the same molecule, the GI50 [40] was 2.1 µM, the TGI [40] was 5.26 µM and the GI50 [41] was 1.63 µM. For the same molecule, the TGI [41] was 3.11 µM, the GI50 [42] was 1.69 µM and the TGI [42] was 3.36 µM. For the same molecule, the GI50 [43] was 1.76 µM, the TGI [43] was 3.22 µM and the GI50 [44] was 1.68 µM. The TGI [44] was 3.05 µM, the GI50 [45] was 3.02 µM and the TGI [45] was 9.41 µM. The GI50 [46] was 1.78 µM, the TGI [46] was 3.18 µM and the GI50 [47] was 1.75 µM. The TGI [47] was 3.14 µM, the GI50 [48] was 12.1 µM and the TGI [48] was 37.3 µM. For the same molecule, the GI50 [49] was 1.64 µM, the TGI [49] was 3.05 µM and the GI50 [50] was 1.64 µM. For the same molecule, the TGI [50] was 3.05 µM, the GI50 [51] was 1.36 µM and the TGI [51] was 2.86 µM. It also gave a GI50 [52] of 1.59 µM, a TGI [52] of 5.08 µM and a GI50 [53] of 1.44 µM. It also gave a TGI [53] of 2.86 µM, a GI50 [55] of 1.7 µM and a TGI [55] of 3.49 µM. The GI50 [56] was 1.72 µM, the TGI [56] was 3.27 µM and the GI50 [57] was 1.8 µM. It also gave a TGI [57] of 3.43 µM, a GI50 [58] of 1.73 µM and a TGI [58] of 3.19 µM. For the same molecule, the GI50 [59] was 1.51 µM and the TGI [59] was 2.87 µM.

From PubChem BioAssay (NCI)
